Literature values, collected in patent US20060110359A1, “Cellular delivery of natriuretic peptides” (priority 2002, published 2006).

What was measured:
brain edema [1] = conditions: for effect on brain edema: experimental brain hemorrhage in rats
brain edema [2] = conditions: into rat lateral ventricle or intravenously

Row | Structure (SMILES) | effect on brain edema (brain edema [1]) | brain water and sodium (brain edema [1]; given after a 4-hour delay, 24 hours after hemorrhage, rats) | brain water and sodium accumulation (brain edema [2])
1 | Nc1nc2c(nc(Br)n2[C@@H]2O[C@@H]3COP(=O)(O)O[C@H]3[C@H]2O)c(=O)[nH]1 [8-bromo-cGMP] | Neither mannitol nor 8-bromo-cGMP affected brain edema | – | –
2 | CC[C@H](C)[C@@H]1NC(=O)[C@H](CCCNC(=N)N)NC(=O)[C@H](CC(=O)O)NC(=O)[C@H](CCSC)NC(=O)[C@H](CCCNC(=N)N)NC(=O)CNC(=O)CNC(=O)[C@H](Cc2ccccc2)NC(=O)[C@@H](NC(=O)[C@H](CO)NC(=O)[C@H](CO)NC(=O)[C@H](CCCNC(=N)N)NC(=O)[C@H](CCCNC(=N)N)NC(=O)[C@H](CC(C)C)NC(=O)[C@@H](N)CO)CSSC[C@@H](C(=O)N[C@@H](CC(N)=O)C(=O)N[C@@H](CO)C(=O)N[C@@H](Cc2ccccc2)C(=O)N[C@@H](CCCNC(=N)N)C(=O)N[C@@H](Cc2ccc(O)cc2)C(=O)O)NC(=O)CNC(=O)[C@H](CC(C)C)NC(=O)CNC(=O)[C@H](CO)NC(=O)[C@H](CCC(N)=O)NC(=O)[C@H](C)NC(=O)CNC1=O [ANP, atrial natriuretic peptide] | – | significantly reduced | inhibit brain water and sodium accumulation
3 | OC[C@@H](O)[C@@H](O)[C@H](O)[C@H](O)CO [mannitol] | Neither mannitol nor 8-bromo-cGMP affected brain edema | – | –
